Here are results for 16 molecules from PubChem BioAssay (NCI).

“And” between values parts separate entries of the source, which are not always exact repeats. Identical values can stand only once.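 Test compounds were applied to cells in 96-well plates for 48 hours at 5 doses. GI50 is the concentration that inhibits growth by half. The concentration for full growth arrest is given as TGI.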

For the first test, the system named is SW-620 colon. Kind of test: DTP human tumour cell line panel, 48 h.
A word on the GI50: it is the concentration giving 50% growth inhibition. In general, TGI refers to the concentration giving total growth inhibition. Read a low TGI as more potent growth arrest. For the molecule `COC(=O)c1ccc2c(c1)C(=O)c1c-2n(CCCN=[N+]=[N-])c(=O)c2cc([N+](=O)[O-])ccc12`, the GI50 was greater than 100 µM and the TGI was greater than 100 µM.

The molecule `C=C1C(=O)C23C(O)C1CC[C@H]2C12CCCC(C)(COC(C)=O)[C@H]1[C@H](O)[C@]3(O)OC2` (stereo not given in full) gave a TGI of 1.92 µM.

As to `O=C(c1cccs1)C1NO[N+]([O-])=C1c1cccs1` (stereo not given), the GI50 was 1.54 µM and the TGI turned out to be 3.01 µM.

Molecule `CN1c2ccccc2SC2C(c3ccccc3)=NOC21` (stereo not given) showed a concentration for total growth inhibition (TGI) greater than 100 µM.

With `COc1ccc(C2=C(N3CCc4ccccc43)C(=O)NC2=O)cc1`, the GI50 was greater than 25 µM and the TGI is greater than 25 µM.

Consider `Cc1cc2c(cc1Cl)S/C(=C/C(=O)O)C(Nc1cccc3nsnc13)=NS2(=O)=O`, for which the GI50 was 44.8 µM and the TGI was greater than 67.6 µM.

Turning to `COc1ccc(F)c(F)c1C(=O)c1cnc(NC2CCN(S(C)(=O)=O)CC2)nc1N`, the GI50 was 0.183 µM and 0.108 µM; the TGI is greater than 100 µM.

Take `Nc1cc(-c2ccc(Cl)cc2)nn1-c1nnc(/C=C/c2ccco2)c(=O)[nH]1`: the GI50 was 5 µM and the TGI was greater than 100 µM.

For `Cc1c(C)c(CC(=O)N2CC2)c(C)c(C)c1CC(=O)N1CC1`, the TGI is greater than 57.2 µM.

For the molecule `O=C1c2ccccc2-c2c1c1c(NCCCO)nc3ccccc3c1n2Cc1ccccc1`, the GI50 is 27.4 µM and the TGI is greater than 100 µM.

Take `O=C1c2ccccc2-c2c1c1ccccc1c(=O)n2CCNCCn1c2c(c3ccccc3c1=O)C(=O)c1ccccc1-2`: the GI50 was greater than 25 µM and the TGI is greater than 25 µM.

Molecule `CCCCCCCCCCCCCCCCCCOCC(COCCOCC[N+]1(CCCCCC(=O)[O-])CCCC1)Oc1ncccn1` (stereo not given) displayed a TGI of 19.2 µM.

As to `CCOc1ccc(Nc2c3ccccc3nc3ccccc23)cc1`, the GI50 is 0.369 µM and 0.339 µM; the TGI is 5.2 µM and 4.02 µM.

Turning to `CCNCCNc1cc(-c2ccc(C#N)cc2)c(C#N)c2nc3ccccc3n12`, the GI50 is 2.68 µM and the TGI stood at 11.1 µM.

As for `[2H]c1nc(=Nc2cc(NC(=O)C=C)c(N(C)CCN(C)C)cc2OC)[nH]c(-c2cn(C([2H])([2H])[2H])c3ccccc23)c1[2H]`, the GI50 is 1.86 µM and the TGI stood at 3.87 µM.

On to `COc1cc2nc(-c3ccc(C(F)(F)F)cc3)cc(OCCCN3CCCC3)c2cc1OC`, for which the GI50 was 2.59 µM and the TGI came to 29.6 µM.

The test system of the next test is UACC-62 melanoma. Description: DTP human tumour cell line panel, 48 h.
`COC(=O)c1ccc2c(c1)C(=O)c1c-2n(CCCN=[N+]=[N-])c(=O)c2cc([N+](=O)[O-])ccc12`: the GI50 was 37.2 µM and the TGI was greater than 100 µM.

For the molecule `C=C1C(=O)C23C(O)C1CC[C@H]2C12CCCC(C)(COC(C)=O)[C@H]1[C@H](O)[C@]3(O)OC2` (stereo not given in full), the TGI came out at 3.16 µM.

For `O=C(c1cccs1)C1NO[N+]([O-])=C1c1cccs1` (stereo not given), the GI50 is 12.1 µM and the TGI amounted to 24.8 µM.

For `CN1c2ccccc2SC2C(c3ccccc3)=NOC21` (stereo not given), the TGI was greater than 100 µM.

Take `COc1ccc(C2=C(N3CCc4ccccc43)C(=O)NC2=O)cc1`: the GI50 is greater than 19.9 µM and the TGI was greater than 25 µM.

With `Cc1cc2c(cc1Cl)S/C(=C/C(=O)O)C(Nc1cccc3nsnc13)=NS2(=O)=O`, the GI50 was 43 µM and the TGI is greater than 66.2 µM.

Take `COc1ccc(F)c(F)c1C(=O)c1cnc(NC2CCN(S(C)(=O)=O)CC2)nc1N`: the GI50 is 0.655 µM and 0.284 µM; the TGI was 2.77 µM and 2.45 µM.

For the molecule `Nc1cc(-c2ccc(Cl)cc2)nn1-c1nnc(/C=C/c2ccco2)c(=O)[nH]1`, the GI50 was 5.45 µM and the TGI is greater than 58.6 µM.

The molecule `Cc1c(C)c(CC(=O)N2CC2)c(C)c(C)c1CC(=O)N1CC1` showed a TGI of 17.2 µM. In other words, the double-digit micromolar range.

In the case of `O=C1c2ccccc2-c2c1c1c(NCCCO)nc3ccccc3c1n2Cc1ccccc1`, the GI50 was 18.7 µM and the TGI amounted to 36.5 µM.

`O=C1c2ccccc2-c2c1c1ccccc1c(=O)n2CCNCCn1c2c(c3ccccc3c1=O)C(=O)c1ccccc1-2`: the GI50 is greater than 25 µM and the TGI is greater than 25 µM.

The molecule `CCCCCCCCCCCCCCCCCCOCC(COCCOCC[N+]1(CCCCCC(=O)[O-])CCCC1)Oc1ncccn1` (stereo not given) displayed a TGI of 14.2 µM.

Consider `CCOc1ccc(Nc2c3ccccc3nc3ccccc23)cc1`, for which the GI50 was 0.506 µM and 0.216 µM; the TGI is 4.25 µM and 1.3 µM.

Take `CCNCCNc1cc(-c2ccc(C#N)cc2)c(C#N)c2nc3ccccc3n12`: the GI50 is 2.02 µM and the TGI was determined as 4.18 µM.

With `[2H]c1nc(=Nc2cc(NC(=O)C=C)c(N(C)CCN(C)C)cc2OC)[nH]c(-c2cn(C([2H])([2H])[2H])c3ccccc23)c1[2H]`, the GI50 is 1.72 µM and the TGI amounted to 3.28 µM.

Take `COc1cc2nc(-c3ccc(C(F)(F)F)cc3)cc(OCCCN3CCCC3)c2cc1OC`: the GI50 is 1.57 µM and the TGI was 6.6 µM.

A further test deals with MALME-3M melanoma. Kind of test: DTP human tumour cell line panel, 48 h.
On to `COC(=O)c1ccc2c(c1)C(=O)c1c-2n(CCCN=[N+]=[N-])c(=O)c2cc([N+](=O)[O-])ccc12`, for which the GI50 was 63 µM and the TGI was greater than 100 µM.

On to `C=C1C(=O)C23C(O)C1CC[C@H]2C12CCCC(C)(COC(C)=O)[C@H]1[C@H](O)[C@]3(O)OC2` (stereo not given in full), for which the TGI turned out to be 3.01 µM.

For the molecule `O=C(c1cccs1)C1NO[N+]([O-])=C1c1cccs1` (stereo not given), the GI50 was 0.517 µM and the TGI was determined as 1.19 µM.

`CN1c2ccccc2SC2C(c3ccccc3)=NOC21` (stereo not given) came in with a TGI of 86.5 µM.

As for `COc1ccc(C2=C(N3CCc4ccccc43)C(=O)NC2=O)cc1`, the GI50 is greater than 25 µM and the TGI was greater than 25 µM.

In the case of `Cc1cc2c(cc1Cl)S/C(=C/C(=O)O)C(Nc1cccc3nsnc13)=NS2(=O)=O`, the GI50 was greater than 53.4 µM and the concentration for total growth inhibition (TGI) is greater than 65.8 µM.

With `COc1ccc(F)c(F)c1C(=O)c1cnc(NC2CCN(S(C)(=O)=O)CC2)nc1N`, the GI50 was 1.04 µM and 1.49 µM; the TGI is 4.79 µM and 5.38 µM.

For `Nc1cc(-c2ccc(Cl)cc2)nn1-c1nnc(/C=C/c2ccco2)c(=O)[nH]1`, the GI50 was 7.44 µM and the TGI is 54.6 µM.
